How the values were obtained:
[1] = tested on: anti-IgM-induced expression of CD69 on CD19 positive cells (B cells) in human PBMCs; test: Assay C: PBMC IC50 assay (anti-IgM-induced CD69 expression); assay type: cell-based; conditions: anti-IgM stimulation
Procedure, shortened: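 Freshly isolated human PBMCs (2.5×10^5/well) pretreated 1 h with compound, then stimulated overnight (~16-18 h) with goat F(ab′)2 anti-human IgM. CD69 on CD19+ B cells measured by flow cytometry; IC50 from percentage CD69+ B cells versus concentration.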

[2] = molecular target: BTK C481S (His-TEV-hsBTK(328-659)(C481S)) (Homo sapiens (Human), UniProt Q06187, C481S); test: Assay B: microfluidic off-chip mobility shift assay against BTK C481S enzyme; assay type: biochemical; conditions: BTK C481S mutant
Procedure, shortened: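 Substrate-to-phosphopeptide conversion quantified by microfluidic mobility shift with laser-induced fluorescence; IC50 and efficacy from log[inhibitor] vs. % activity.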

full-length human BTK = full-length human BTK (Homo sapiens (Human), UniProt Q06187); test: Assay A: microfluidic off-chip mobility shift assay against BTK enzyme; assay type: biochemical
full-length human BTK, sequence (Q06187 whole entry): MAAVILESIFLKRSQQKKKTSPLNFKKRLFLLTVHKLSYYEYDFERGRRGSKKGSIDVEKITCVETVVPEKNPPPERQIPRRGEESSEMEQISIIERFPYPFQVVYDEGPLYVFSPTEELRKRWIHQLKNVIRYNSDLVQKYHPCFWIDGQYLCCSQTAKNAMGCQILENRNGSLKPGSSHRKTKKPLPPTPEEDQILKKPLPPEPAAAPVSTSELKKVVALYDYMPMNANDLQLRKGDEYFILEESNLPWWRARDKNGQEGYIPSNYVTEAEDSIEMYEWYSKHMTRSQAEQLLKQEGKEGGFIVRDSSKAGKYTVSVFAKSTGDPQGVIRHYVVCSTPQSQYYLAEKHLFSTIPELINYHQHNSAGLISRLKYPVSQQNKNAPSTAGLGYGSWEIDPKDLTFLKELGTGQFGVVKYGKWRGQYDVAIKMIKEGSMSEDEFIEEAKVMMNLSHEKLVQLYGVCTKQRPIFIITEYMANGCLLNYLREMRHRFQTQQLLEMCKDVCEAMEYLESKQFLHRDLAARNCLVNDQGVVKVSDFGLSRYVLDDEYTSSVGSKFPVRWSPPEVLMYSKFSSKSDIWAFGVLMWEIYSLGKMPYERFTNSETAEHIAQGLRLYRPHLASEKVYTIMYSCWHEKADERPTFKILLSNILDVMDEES

BTK C481S (His-TEV-hsBTK(328-659)(C481S)), sequence (Q06187 328-659 C481S): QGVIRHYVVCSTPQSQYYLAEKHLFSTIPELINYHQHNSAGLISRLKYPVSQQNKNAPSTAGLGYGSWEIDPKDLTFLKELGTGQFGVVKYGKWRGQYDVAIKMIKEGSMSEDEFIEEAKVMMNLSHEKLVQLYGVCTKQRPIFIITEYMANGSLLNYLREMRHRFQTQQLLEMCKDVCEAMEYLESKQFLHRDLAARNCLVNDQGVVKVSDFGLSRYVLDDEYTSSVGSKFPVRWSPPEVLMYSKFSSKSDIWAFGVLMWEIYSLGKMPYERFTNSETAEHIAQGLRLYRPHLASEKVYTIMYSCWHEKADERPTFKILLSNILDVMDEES

Row | Compound | IC50 [2] [µM] | IC50 (full-length human BTK) [µM] | IC50 [1] [µM]
1 | Cn1cc(-c2nc3c(-c4ccc(CNC(=O)c5ccc(C6CC6)nc5)c(F)c4)ccnc3[nH]2)cn1 [Example 56, 6-Cyclopropyl-N-([2-fluoro-4-[2-(1-methyl-1H-pyrazol-4-yl)-3H-imidazo[4,5-b]pyridin-7-yl]phenyl]methyl)pyridine-3-carboxamide] | < 0.1 | < 0.1 | 1 to 5
2 | CN1CCN(Cc2ccc(-c3nc4c(-c5cccc(N6CCOc7cc(C8CC8)cc(F)c7C6=O)c5CO)ccnc4[nH]3)nc2)CC1 [Example 35, 8-Cyclopropyl-6-fluoro-4-[2-(hydroxymethyl)-3-(2-[5-[(4-methylpiperazin-1-yl)methyl]pyridin-2-yl]-3H-imidazo[4,5-b]pyridin-7-yl)phenyl]-2,3,4,5-tetrahydro-1,4-benzoxazepin-5-one] | < 0.1 | < 0.1 | 0.1 to 1
3 | Cn1cc(-c2nc3c(-c4cccc(NC(=O)c5ccc(C6CC6)nc5)c4CO)ccnc3[nH]2)cn1 [Example 49, 6-Cyclopropyl-N-[2-(hydroxymethyl)-3-[2-(1-methyl-1H-pyrazol-4-yl)-3H-imidazo[4,5-b]pyridin-7-yl]phenyl]pyridine-3-carboxamide] | < 0.1 | < 0.1 | 0.1 to 1
4 | Cn1cc(-c2nc3c(-c4ccc(C(C)(C)NC(=O)c5ccc(C(C)(C)C)cc5)c(F)c4)ccnc3[nH]2)cn1 [Example 106, 4-tert-Butyl-N-(1-{2-fluoro-4-[2-(1-methyl-1H-pyrazol-4-yl)-3H-imidazo[4,5-b]pyridin-7-yl]-phenyl}-1-methyl-ethyl)-benzamide] | 0.1 to 1 | < 0.1 | 0.1 to 1
5 | Cn1cc(-c2nc3c(-c4cccc(NC(=O)N5CC(OC(C)(C)C)C5)c4CO)ccnc3[nH]2)cn1 [Example 91, 3-(tert-Butoxy)-N-[2-(hydroxymethyl)-3-[2-(1-methyl-1H-pyrazol-4-yl)-3H-imidazo[4,5-b]pyridin-7-yl]phenyl]azetidine-1-carboxamide] | < 0.1 | < 0.1 | 0.1 to 1
6 | O=C(NCc1ccc(-c2ccnc3[nH]c(-c4cnn(CCN5CCOCC5)c4)nc23)cc1F)c1nnc(C2CCOCC2)o1 [Example 122, 5-(Tetrahydro-pyran-4-yl)-[1,3,4]oxadiazole-2-carboxylic acid 2-fluoro-4-{2-[1-(2-morpholin-4-yl-ethyl)-1H-pyrazol-4-yl]-3H-imidazo[4,5-b]pyridin-7-yl}-benzylamide] | 0.1 to 1 | 0.1 to 1 | > 5
7 | Cn1cc(-c2nc3c(-c4ccc(CNC(=O)c5ccc(C(C)(C)C)cc5)cc4)ccnc3[nH]2)cn1 [Example 110, 4-tert-Butyl-N-{4-[2-(1-methyl-1H-pyrazol-4-yl)-3H-imidazo[4,5-b]pyridin-7-yl]-benzyl}-benzamide] | < 0.1 | < 0.1 | 0.1 to 1
8 | O=C1c2c(F)cc(C3CC3)cc2OCCN1c1cccc(-c2ccnc3[nH]c(-c4cccnc4)nc23)c1CO [Example 2, 8-Cyclopropyl-6-fluoro-4-[2-(hydroxymethyl)-3-[2-(pyridin-3-yl)-3H-imidazo[4,5-b]pyridin-7-yl]phenyl]-2,3,4,5-tetrahydro-1,4-benzoxazepin-5-one] | < 0.1 | < 0.1 | 1 to 5
9 | Cn1cc(-c2nc3c(-c4ccc(CNC(=O)CCCC5CCCC5)c(F)c4)ccnc3[nH]2)cn1 [Example 16, 4-Cyclopentyl-N-{2-fluoro-4-[2-(1-methyl-1H-pyrazol-4-yl)-3H-imidazo[4,5-b]pyridin-7-yl]-benzyl}-butyramide] | < 0.1 | < 0.1 | > 5
10 | Cn1cc(-c2nc3c(-c4cc(F)cc(N5CCOc6cc(C7CC7)cc(F)c6C5=O)c4CO)ccnc3[nH]2)cn1 [Example 37, 8-Cyclopropyl-6-fluoro-4-[5-fluoro-2-(hydroxymethyl)-3-[2-(1-methyl-1H-pyrazol-4-yl)-3H-imidazo [4,5-b]pyridin-7-yl]phenyl]-2,3,4,5-tetrahydro-1,4-benzoxazepin-5-one] | < 0.1 | < 0.1 | 0.1 to 1
11 | Cn1cc(-c2nc3c(-c4ccc(C5(NC(=O)c6ccc(C(C)(C)C)cc6)CC5)cc4)ccnc3[nH]2)cn1 [Example 113, 4-tert-Butyl-N-(1-{4-[2-(1-methyl-1H-pyrazol-4-yl)-3H-imidazo[4,5-b]pyridin-7-yl]-phenyl}-cyclopropyl)-benzamide] | < 0.1 | < 0.1 | 0.1 to 1

The next lines start with results.

Row | IC50 [2] [µM] | IC50 (full-length human BTK) [µM] | Compound | IC50 [1] [µM]
12 | < 0.1 | < 0.1 | Cn1cc(-c2nc3c(-c4ccc(CNC(=O)c5nnc(C(C)(C)C)o5)c(F)c4)ccnc3[nH]2)cn1 [Example 111, 5-tert-Butyl-[1,3,4]oxadiazole-2-carboxylic acid 2-fluoro-4-[2-(1-methyl-1H-pyrazol-4-yl)-3H-imidazo[4,5-b]pyridin-7-yl]-benzylamide] | 0.1 to 1
13 | < 0.1 | < 0.1 | Cn1cc(-c2nc3c(-c4ccc(CNC(=O)c5cc(C(C)(C)C)on5)c(F)c4)ccnc3[nH]2)cn1 [Example 67, 5-tert-Butyl-N-([2-fluoro-4-[2-(1-methyl-1H-pyrazol-4-yl)-3H-imidazo[4,5-b]pyridin-7-yl]phenyl]methyl)-1,2-oxazole-3-carboxamide] | < 0.1
14 | < 0.1 | < 0.1 | Cc1cc(CNC(=O)c2noc(C(C)(C)C)n2)c(F)cc1-c1ccnc2[nH]c(-c3cnn(C)c3)nc12 [Example 77, 5-tert-butyl-N-([2-fluoro-5-methyl-4-[2-(1-methyl-1H-pyrazol-4-yl)-3H-imidazo[4,5-b]pyridin-7-yl]phenyl]methyl)-1,2,4-oxadiazole-3-carboxamide] | 1 to 5
15 | < 0.1 | < 0.1 | CN1CC=C(c2nc3c(-c4ccc(CNC(=O)c5nnc(C(C)(C)C)o5)c(F)c4)ccnc3[nH]2)CC1 [Example 139, 5-tert-Butyl-[1,3,4]oxadiazole-2-carboxylic acid 2-fluoro-4-[2-(1-methyl-1,2,3,6-tetrahydro-pyridin-4-yl)-3H-imidazo[4,5-b]pyridin-7-yl]-benzylamide] | 1 to 5
16 | 1 to 5 | < 0.1 | Cn1cc(-c2nc3c(-c4ccc(CNC(=O)c5nnc(C(C)(C)C)o5)cc4)ccnc3[nH]2)cn1 [Example 109, 5-tert-Butyl-[1,3,4]oxadiazole-2-carboxylic acid 4-[2-(1-methyl-1H-pyrazol-4-yl)-3H-imidazo[4,5-b]pyridin-7-yl]-benzylamide] | 1 to 5
17 | < 0.1 | < 0.1 | CC(C)(C)c1nc(C(=O)NCc2ccc(-c3ccnc4[nH]c(-c5ccc(N6CCCCC6)cn5)nc34)cc2F)no1 [Example 83, 5-tert-Butyl-N-[(2-fluoro-4-[2-[5-(piperidin-1-yl)pyridin-2-yl]-3H-imidazo[4,5-b]pyridin-7-yl]phenyl)methyl]-1,2,4-oxadiazole-3-carboxamide] | < 0.1
18 | < 0.1 | < 0.1 | CN1CCN(Cc2ccc(-c3nc4c(-c5ccc(CNC(=O)c6noc(C(C)(C)C)n6)c(F)c5)ccnc4[nH]3)cc2)CC1 [Example 71, 5-tert-Butyl-N-[[2-fluoro-4-(2-[4-[(4-methylpiperazin-1-yl)methyl]phenyl]-1H-imidazo[4,5-b]pyridin-7-yl)phenyl]methyl]-1,2,4-oxadiazole-3-carboxamide] | < 0.1
19 | < 0.1 | < 0.1 | CC(C)(C)c1nc(C(=O)NCc2ccc(-c3ccnc4[nH]c(-c5cnn(CCO)c5)nc34)cc2F)no1 [Example 70, 5-tert-Butyl-N-[(2-fluoro-4-[2-[1-(2-hydroxyethyl)-1H-pyrazol-4-yl]-3H-imidazo[4,5-b]pyridin-7-yl]phenyl)methyl]-1,2,4-oxadiazole-3-carboxamide] | 0.1 to 1
20 | < 0.1 | < 0.1 | CC(C)(C)c1nc(C(=O)NCc2ccc(-c3ccnc4[nH]c(C5CC5)nc34)cc2F)no1 [Example 27, 5-tert-Butyl-[1,2,4]oxadiazole-3-carboxylic acid 4-(2-cyclopropyl-3H-imidazo[4,5-b]pyridin-7-yl)-2-fluoro-benzylamide] | 1 to 5
21 | < 0.1 | < 0.1 | CN(C)c1ccc(-c2nc3c(-c4ccc(CNC(=O)c5ccc(C(C)(C)C)cc5)c(F)c4)ccnc3[nH]2)nc1 [Example 89, 4-tert-Butyl-N-[(4-[2-[5-(dimethylamino)pyridin-2-yl]-3H-imidazo[4,5-b]pyridin-7-yl]-2-fluorophenyl)methyl]benzamide] | 1 to 5
22 | < 0.1 | < 0.1 | CN(C)c1ccc(-c2nc3c(-c4ccc(CNC(=O)c5noc(C(C)(C)C)n5)c(F)c4)ccnc3[nH]2)cc1 [Example 145, 5-(tert-butyl)-N-(4-(2-(4-(dimethylamino)phenyl)-3H-imidazo[4,5-b]pyridin-7-yl)-2-fluorobenzyl)-1,2,4-oxadiazole-3-carboxamide] | < 0.1
23 | 0.1 to 1 | < 0.1 | CC(C)(C)c1nc(C(=O)NCc2ccc(-c3ccnc4[nH]c(-c5cnn(CCN)c5)nc34)cc2F)no1 [Example 72, N-[(4-[2-[1-(2-aminoethyl)-1H-pyrazol-4-yl]-3H-imidazo[4,5-b]pyridin-7-yl]-2-fluorophenyl)methyl]-5-tert-butyl-1,2,4-oxadiazole-3-carboxamide] | 0.1 to 1
24 | < 0.1 | < 0.1 | CC(C)(C)c1nc(C(=O)NCc2ccc(-c3ccnc4[nH]c(-c5ccc(N6CCCC6)cn5)nc34)cc2F)no1 [Example 80, 5-tert-Butyl-N-[(2-fluoro-4-[2-[5-(pyrrolidin-1-yl)pyridin-2-yl]-3H-imidazo[4,5-b]pyridin-7-yl]phenyl)methyl]-1,2,4-oxadiazole-3-carboxamide] | 0.1 to 1
